This note sets out measurements from US11299485B2, “Thiophene derivative and use thereof” (FUJIMOTO CO., LTD., priority 2018, dated 2022).

Holding throughout (format): cell-based
The subject of one assay is MM.1S cells. Kind of assay: Human myeloma cell line MM.1S proliferation suppression test. The note with it: MM1.S, 72 h, compound 10 μM, 3 days, WST-1 or WST-8, read-out: cell survival rate (% of control) MM.1S. The procedure:
Example 51: Human Myeloma Cell Line MM.1S Proliferation Suppression Test
MM.1S cells (ATCC, CRL-2974) were suspended in 10% fetal calf serum (Thermo Fisher Scientific)-containing RPMI1640 medium (ATCC, hereinafter abbreviated as medium B), and diluted as appropriate with 0.4% trypan blue solution (Sigma-Aldrich Co. LLC.). The number of viable cells was counted with a hemocytometer (ERMA INC.). It was diluted with medium B such that the value obtained was 2×10^5 cells/mL. On the other hand, 50 μL of a solution obtained by diluting 4 mM DMSO solution of the test compound 200-fold with medium B was added to each well of a Falcon 96-well flat bottom plate (Corning Incorporated), and the above-mentioned cell suspension was dispensed at 50 μL/well (final concentration of test compound 10 μM). 50 μL of a solution obtained by diluting DMSO 200-fold with medium B was added to the control well. After culturing at 37° C. in a 5% CO2 stream for 3 days, the cell proliferation activity was measured using WST-1 (DOJINDO LABORATORIES) or WST-8 Kit (KISHIDA CHEMICAL Co., Ltd.) and according to each instruction manual attached thereto.
For orientation: Tetrazolium dyes change colour on reduction, which living cells bring about.

The test system of a further assay is Pfeiffer cells. Kind of assay: Human diffuse large B-cell lymphoma cell line Pfeiffer proliferation suppression test. The note with it: 144 h, compound 10 μM, 3 days + re-plating with compound 3 days, WST-8, read-out: cell survival rate (% of control) Pfeiffer. From the text:
Example 52: Human Diffuse Large B-Cell Lymphoma Cell Line Pfeiffer Proliferation Suppression Test
(§1) Pfeiffer cells (ATCC, CRL-2632) were suspended in medium B, and diluted as appropriate with 0.4% trypan blue solution (Sigma-Aldrich Co. LLC.). The number of viable cells was counted with a hemocytometer (Funakoshi Co., Ltd.). A cell suspension obtained by diluting with medium B such that the value obtained was 1.3×10^5 cells/mL was dispensed into a Falcon 96 well flat bottom plate (Corning Incorporated) at 75 μL/well, and culture was started at 37° C. under 5% CO2 stream. The next day, a solution obtained by diluting 4 mM DMSO solution of the test compound 100-fold with medium B was added by 25 μL to each well (final concentration of test compound 10 μM). 25 μL of a solution obtained by diluting DMSO 100-fold with medium B was added to the control well. After culturing at 37° C. in a 5% CO2 stream for 3 days, the cell culture medium was uniformly suspended with a multi channel pipette, 14 μL per well was transferred into another new Falcon 96 well flat bottom plate. A solution obtained by diluting 4 mM DMSO solution of the same test compound as the first time 400-fold with medium B was added by 86 μL to a total amount of 100 μL (final concentration of test compound 10 μM). After culturing at 37° C. in a 5% CO2 stream for 3 days, the cell proliferation activity was measured according to the instruction manual attached to WST-8 Kit (KISHIDA CHEMICAL Co., Ltd.).

The subject of a further assay is REC-1 cells. Briefly: Human mantle cell lymphoma cell line REC-1 proliferation suppression test. The note with it: Rec1, 72 h, compound 10 μM, 3 days, WST-8, read-out: cell survival rate (% of control) REC-1. The procedure:
Example 53: Human Mantle Cell Lymphoma Cell Line REC-1 Proliferation Suppression Test
as §1, with “REC-1” for “Pfeiffer”, “CRL-3004)” for “CRL-2632)”, “cell” for “cell culture medium was uniformly suspended with a multi channel pipette, 14 μL per well was transferred into another new Falcon 96 well flat bottom plate. A solution obtained by diluting 4 mM DMSO solution of the same test compound as the first time 400-fold with medium B was added by 86 μL to a total amount of 100 μL (final concentration of test compound 10 μM). After culturing at 37° C. in a 5% CO2 stream for 3 days, the cell”

Turning to `O=C1CCC(n2cc(-c3cscc3OC3CCCC3)nn2)C(=O)N1` (stereo not drawn) [compound 27, 3-{4-[4-(cyclopentyloxy)thiophen-3-yl]-1H-1,2,3-triazol-1-yl}piperidine-2,6-dione], the viability at 10 µM in the assay on MM.1S cells was 82%; with Pfeiffer cells it was 98%; in the assay on REC-1 cells, 80%.

For the compound `O=C1CCC(n2cc(-c3cscc3OCC3CC3)nn2)C(=O)N1` (stereo not drawn) [compound 28, 3-{4-[4-(cyclopropylmethoxy)thiophen-3-yl]-1H-1,2,3-triazol-1-yl}piperidine-2,6-dione], the viability at 10 µM is 68% with MM.1S cells, 91% in the assay on Pfeiffer cells and 58% with REC-1 cells.

Turning to `COc1cscc1-c1cn(C2CCC(=O)NC2=O)nn1` (stereo not drawn) [compound 19, 3-[4-(4-methoxythiophen-3-yl)-1H-1,2,3-triazol-1-yl]piperidine-2,6-dione], the results for the viability at 10 µM with MM.1S cells, with Pfeiffer cells and with REC-1 cells were 24%, 11% and 4%, respectively.

As to `COc1c(-c2cn(C3CCC(=O)NC3=O)nn2)csc1Cl` (stereo not drawn) [compound 22, 3-[4-(5-chloro-4-methoxythiophen-3-yl)-1H-1,2,3-triazol-1-yl]piperidine-2,6-dione], the values for the viability at 10 µM in the assay with MM.1S cells, in the assay on Pfeiffer cells and in the assay with REC-1 cells were 73%, 97% and 65%, respectively.

In the case of `O=C1CCC(n2cc(-c3ccsc3)nn2)C(=O)N1` (stereo not drawn) [compound 2, 3-[4-(thiophen-3-yl)-1H-1,2,3-triazol-1-yl]piperidine-2,6-dione], the viability at 10 µM came out at 50% in the assay with MM.1S cells, 80% with Pfeiffer cells and 36% in the assay on REC-1 cells.

As for `O=C1CCC(n2cc(-c3cscc3OCC3CCCC3)nn2)C(=O)N1` (stereo not drawn) [compound 29, 3-{4-[4-(cyclopentylmethoxy)thiophen-3-yl]-1H-1,2,3-triazol-1-yl}piperidine-2,6-dione], the viability at 10 µM in the assay on MM.1S cells stood at 89%; in the assay with Pfeiffer cells it was 110%; with REC-1 cells, 86%.

On to `Cc1cc(-c2cn(C3CCC(=O)NC3=O)nn2)cs1` (stereo not drawn) [compound 6, 3-[4-(5-methylthiophen-3-yl)-1H-1,2,3-triazol-1-yl]piperidine-2,6-dione], for which the viability at 10 µM in the assay on MM.1S cells amounted to 63%; in the assay with Pfeiffer cells, 100%; in the assay on REC-1 cells it was 52%.

With `C[C@@H]1CN(Cc2ccc(COc3cscc3-c3cn(C4CCC(=O)NC4=O)nn3)cc2)C[C@H](C)O1` (stereo partly drawn) [compound 38, 3-{4-[4-(4-{[(2S,6R)-2,6-dimethylmorpholino]methyl}benzyloxy)thiophen-3-yl]-1H-1,2,3-triazol-1-yl}piperidine-2,6-dione], the values for the viability at 10 µM in the assay with MM.1S cells, with Pfeiffer cells and in the assay on REC-1 cells were 24%, 29% and 5%, respectively.

Take `O=C1CCC(n2cc(-c3cscc3Br)nn2)C(=O)N1` (stereo not drawn) [compound 1, 3-[4-(4-bromothiophen-3-yl)-1H-1,2,3-triazol-1-yl]piperidine-2,6-dione]: the viability at 10 µM was determined as 33% in the assay with MM.1S cells, 89% in the assay on Pfeiffer cells and 43% in the assay on REC-1 cells.

On to `O=C1CCC(n2cc(-c3cscc3Cl)nn2)C(=O)N1` (stereo not drawn) [compound 14, 3-[4-(4-chlorothiophen-3-yl)-1H-1,2,3-triazol-1-yl]piperidine-2,6-dione], for which the results for the viability at 10 µM in the assay on MM.1S cells, with Pfeiffer cells and in the assay with REC-1 cells were 43%, 74% and 34%, respectively.

Consider `COc1c(-c2cn(C3CCC(=O)NC3=O)nn2)csc1C` (stereo not drawn) [compound 15, 3-[4-(4-methoxy-5-methylthiophen-3-yl)-1H-1,2,3-triazol-1-yl]piperidine-2,6-dione], for which the viability at 10 µM was found to be 55% in the assay on MM.1S cells, 87% with Pfeiffer cells and 36% with REC-1 cells.

As for `O=C1CCC(n2cc(-c3cscc3OCc3ccc(Cl)cc3)nn2)C(=O)N1` (stereo not drawn) [compound 43, 3-{4-[4-(4-chlorobenzyloxy)thiophen-3-yl]-1H-1,2,3-triazol-1-yl}piperidine-2,6-dione], the viability at 10 µM stood at 30% in the assay on MM.1S cells, 89% in the assay on Pfeiffer cells and 23% with REC-1 cells.

For `O=C1CCC(n2cc(-c3cscc3OCc3ccccc3)nn2)C(=O)N1` (stereo not drawn) [compound 32, 3-{4-[4-(benzyloxy)thiophen-3-yl]-1H-1,2,3-triazol-1-yl}piperidine-2,6-dione], the viability at 10 µM amounted to 27% in the assay with MM.1S cells, 60% in the assay with Pfeiffer cells and 15% in the assay with REC-1 cells.

On to `COc1ccc(COc2cscc2-c2cn(C3CCC(=O)NC3=O)nn2)cc1` (stereo not drawn) [compound 31, 3-{4-[4-(4-methoxybenzyloxy)thiophen-3-yl]-1H-1,2,3-triazol-1-yl}piperidine-2,6-dione], for which the viability at 10 µM in the assay on MM.1S cells stood at 27%; in the assay with Pfeiffer cells, 82%; in the assay with REC-1 cells, 27%.

`O=C1CCC(n2cc(-c3scc4c3OCCO4)nn2)C(=O)N1` (stereo not drawn) [compound 10, 3-[4-(2,3-dihydrothieno[3,4-b][1,4]dioxin-5-yl)-1H-1,2,3-triazol-1-yl]piperidine-2,6-dione]: the viability at 10 µM in the assay with MM.1S cells amounted to 78%; with Pfeiffer cells it was 113%; with REC-1 cells it was 57%.

With `CN(C)Cc1ccc(COc2cscc2-c2cn(C3CCC(=O)NC3=O)nn2)cc1.Cl` (stereo not drawn) [compound 46, 3-[4-(4-{4-[(dimethylamino)methyl]benzyloxy}thiophen-3-yl)-1H-1,2,3-triazol-1-yl]piperidine-2,6-dione hydrochloride], the viability at 10 µM in the assay with MM.1S cells turned out to be 35%; with Pfeiffer cells it was 84%; in the assay with REC-1 cells, 23%.

Consider `Cl.O=C1CCC(n2cc(-c3cscc3OCc3ccc(CN4CCCCC4)cc3)nn2)C(=O)N1` (stereo not drawn) [compound 42, 3-(4-{4-[4-(piperidin-1-ylmethyl)benzyloxy]thiophen-3-yl}-1H-1,2,3-triazol-1-yl)piperidine-2,6-dione hydrochloride], for which the results for the viability at 10 µM in the assay on MM.1S cells, with Pfeiffer cells and with REC-1 cells were 27%, 63% and 13%, respectively.

For `CC(Oc1cscc1-c1cn(C2CCC(=O)NC2=O)nn1)c1ccccc1` (stereo not drawn) [compound 44, 3-{4-[4-(1-phenylethoxy)thiophen-3-yl]-1H-1,2,3-triazol-1-yl}piperidine-2,6-dione], the figures for the viability at 10 µM in the assay on MM.1S cells, in the assay with Pfeiffer cells and in the assay with REC-1 cells were 33%, 94% and 30%, respectively.

On to `O=C1CCC(n2cc(-c3csc(CO)c3)nn2)C(=O)N1` (stereo not drawn) [compound 9, 3-{4-[5-(hydroxymethyl)thiophen-3-yl]-1H-1,2,3-triazol-1-yl}piperidine-2,6-dione], for which the viability at 10 µM in the assay on MM.1S cells came to 77%; in the assay with Pfeiffer cells it was 100%; in the assay with REC-1 cells, 70%.

On to `O=C1CCC(n2cc(-c3cscc3OCc3ccccn3)nn2)C(=O)N1` (stereo not drawn) [compound 34, 3-{4-[4-(pyridin-2-ylmethoxy)thiophen-3-yl]-1H-1,2,3-triazol-1-yl}piperidine-2,6-dione], for which the results for the viability at 10 µM in the assay on MM.1S cells, in the assay with Pfeiffer cells and in the assay on REC-1 cells were 50%, 104% and 33%, respectively.

As to `O=C1CCC(n2cc(-c3cscc3OCc3cccc(CN4CCOCC4)c3)nn2)C(=O)N1` (stereo not drawn) [compound 39, 3-(4-{4-[3-(morpholinomethyl)benzyloxy]thiophen-3-yl}-1H-1,2,3-triazol-1-yl)piperidine-2,6-dione], the values for the viability at 10 µM with MM.1S cells, in the assay with Pfeiffer cells and with REC-1 cells were 26%, 69% and 24%, respectively.
